row,SMILES,melting point
1,O=C(N[C@H]1CN2CCC1CC2)C(O)(c1ccccc1)C1CCCC1 (stereo partly shown),69.8 to 73.3 °C
2,CCCCC(C(=O)N[C@H]1CN2CCC1CC2)c1ccccc1 (stereo partly shown),136 °C
3,C=CCC(O)(C(=O)N[C@H]1CN2CCC1CC2)c1cccs1 (stereo partly shown),54.4 to 58.3 °C

# The remaining lines, values ahead:
row,melting point,SMILES
1,142 °C,O=C(N[C@H]1CN2CCC1CC2)C(Cc1ccccc1)c1ccccc1 (stereo partly shown)
2,197.5 to 203.6 °C,C[N+]12CCC(CC1)C(NC(=O)C1(O)c3ccccc3-c3ccccc31)C2.[Br-] (stereo not shown)
3,264 °C,O=C(NC1C[N+]2(CCCOc3ccccc3)CCC1CC2)C1(O)c2ccccc2-c2ccccc21.[Br-] (stereo not shown)
4,318 °C,C[N+]12CCC(CC1)C(NC(=O)C1c3ccccc3Oc3ccccc31)C2.[Br-] (stereo not shown)
